Reference: ChEMBL document CHEMBL3044734, “Major secondary metabolites produced by two commercial Trichoderma strains active against different phytopathogens” (2006)

Experiments:
Type in all cases: functional
Gaeumannomyces tritici [1] = experiment: Antimicrobial activity against Gaeumannomyces graminis var. tritici assessed as colony diameter at 100 ug/plug after 3 days ( Rvb = 1.40+/- 0.8 cm)
Gaeumannomyces tritici [2] = experiment: Antimicrobial activity against Gaeumannomyces graminis var. tritici assessed as colony diameter at 200 ug/plug after 3 days ( Rvb = 1.40+/- 0.8 cm)
Globisporangium ultimum [3] = experiment: Antimicrobial activity against Pythium ultimum assessed as colony diameter at 200 ug/plug after 3 days ( Rvb = 8.50 cm)
Rhizoctonia solani [4] = experiment: Antimicrobial activity against Rhizoctonia solani assessed as colony diameter at 10 ug/plug after 3 days ( Rvb = 2.95 +/- 0.11 cm)
Gaeumannomyces tritici [5] = experiment: Antimicrobial activity against Gaeumannomyces graminis var. tritici assessed as colony diameter at 0.01 ug/plug after 3 days ( Rvb = 1.40+/- 0.8 cm)
Globisporangium ultimum [6] = experiment: Antimicrobial activity against Pythium ultimum assessed as colony diameter at 10 ug/plug after 3 days ( Rvb = 8.50 cm)
Gaeumannomyces tritici [7] = experiment: Antimicrobial activity against Gaeumannomyces graminis var. tritici assessed as colony diameter at 1 ug/plug after 3 days ( Rvb = 1.40+/- 0.8 cm)
Globisporangium ultimum [8] = experiment: Antimicrobial activity against Pythium ultimum assessed as colony diameter at 1 ug/plug after 3 days ( Rvb = 8.50 cm)
Globisporangium ultimum [9] = experiment: Antimicrobial activity against Pythium ultimum assessed as colony diameter at 0.01 ug/plug after 3 days ( Rvb = 8.50 cm)
Gaeumannomyces tritici [10] = experiment: Antimicrobial activity against Gaeumannomyces graminis var. tritici assessed as colony diameter at 0.1 ug/plug after 3 days ( Rvb = 1.40+/- 0.8 cm)
Globisporangium ultimum [11] = experiment: Antimicrobial activity against Pythium ultimum assessed as colony diameter at 100 ug/plug after 3 days ( Rvb = 8.50 cm)
Rhizoctonia solani [12] = experiment: Antimicrobial activity against Rhizoctonia solani assessed as colony diameter at 0.1 ug/plug after 3 days ( Rvb = 2.95 +/- 0.11 cm)
Rhizoctonia solani [13] = experiment: Antimicrobial activity against Rhizoctonia solani assessed as colony diameter at 100 ug/plug after 3 days ( Rvb = 2.95 +/- 0.11 cm)
Globisporangium ultimum [14] = experiment: Antimicrobial activity against Pythium ultimum assessed as colony diameter at 0.1 ug/plug after 3 days ( Rvb = 8.50 cm)
Gaeumannomyces tritici [15] = experiment: Antimicrobial activity against Gaeumannomyces graminis var. tritici assessed as colony diameter at 10 ug/plug after 3 days ( Rvb = 1.40+/- 0.8 cm)
Rhizoctonia solani [16] = experiment: Antimicrobial activity against Rhizoctonia solani assessed as colony diameter at 200 ug/plug after 3 days ( Rvb = 2.95 +/- 0.11 cm)
Rhizoctonia solani [17] = experiment: Antimicrobial activity against Rhizoctonia solani assessed as colony diameter at 1 ug/plug after 3 days ( Rvb = 2.95 +/- 0.11 cm)
Rhizoctonia solani [18] = experiment: Antimicrobial activity against Rhizoctonia solani assessed as colony diameter at 0.01 ug/plug after 3 days ( Rvb = 2.95 +/- 0.11 cm)

| SMILES | Activity (Gaeumannomyces tritici [1]) | Activity (Gaeumannomyces tritici [2]) | Activity (Globisporangium ultimum [3]) | Activity (Rhizoctonia solani [4]) | Activity (Gaeumannomyces tritici [5]) | Activity (Globisporangium ultimum [6]) | Activity (Gaeumannomyces tritici [7]) | Activity (Globisporangium ultimum [8]) | Activity (Globisporangium ultimum [9]) | Activity (Gaeumannomyces tritici [10]) | Activity (Globisporangium ultimum [11]) | Activity (Rhizoctonia solani [12]) | Activity (Rhizoctonia solani [13]) | Activity (Globisporangium ultimum [14]) | Activity (Gaeumannomyces tritici [15]) | Activity (Rhizoctonia solani [16]) | Activity (Rhizoctonia solani [17]) | Activity (Rhizoctonia solani [18]) |
| --- | --- | --- | --- | --- | --- | --- | --- | --- | --- | --- | --- | --- | --- | --- | --- | --- | --- | --- |
| C/C=C/C=C/CC1=C(CC(C)=O)C(=O)OC1 [T39BUTENOLIDE] | 0 cm | 0 cm | 6.35 cm | 2.13 cm | 1.2 cm | 8.5 cm | 1.1 cm | 8.5 cm | 8.5 cm | 1.13 cm | 8.05 cm | 2.5 cm | 0 cm | 8.5 cm | 1.23 cm | 0 cm | 2.4 cm | 2.73 cm |
| C/C=C/CC(C)C(=O)c1c(O)c(OC)c(OC)[nH]c1=O (stereo unspecified) [HARZIANOPYRIDONE] | 0 cm |  |  | 0 cm | 0.98 cm | 8.5 cm | 0 cm | 8.5 cm | 8.5 cm | 0.7 cm | 7.9 cm | 2.53 cm | 0 cm | 8.5 cm | 0 cm |  | 1.2 cm | 2.73 cm |
| C/C=C/C=C/CC1=C(CC(C)O)C(=O)OC1 (stereo unspecified) [HARZIANOLIDE] | 1.25 cm | 0.7 cm | 7.6 cm | 3.05 cm | 1.05 cm | 8.5 cm | 1.43 cm | 8.5 cm | 8.5 cm | 1.25 cm | 8.5 cm | 2.83 cm | 2.7 cm | 8.5 cm | 1.1 cm | 2.35 cm | 2.5 cm | 2.8 cm |
| C/C=C/C=C/C1=CC2=CC(=O)[C@](C)(OC(=O)[C@H](C)O)C(=O)C2=CO1 [T22AZAPHILONE] | 0 cm |  |  | 0 cm | 1.18 cm | 5.2 cm | 0 cm | 8.3 cm | 8.5 cm | 1.13 cm | 0 cm | 2.83 cm | 0 cm | 8.5 cm | 0 cm |  | 1.9 cm | 2.9 cm |
